Results reported in patent publication US12343377B2, “Combination therapies comprising a hypomethylation agent for treating cancer” (ALX Oncology Inc., priority 2020, dated 2025).

Experiments:
[1] = tested on: BCL-XL-dependent cells, such as platelets; settings: cited from earlier work
BFL-1 (BCL2A1/A1) = target: T1, BFL-1 (BCL2A1/A1) (Homo sapiens, UniProt Q16548); settings: selectivity profile; cited from earlier work
T1 sequence (Q16548 1-175): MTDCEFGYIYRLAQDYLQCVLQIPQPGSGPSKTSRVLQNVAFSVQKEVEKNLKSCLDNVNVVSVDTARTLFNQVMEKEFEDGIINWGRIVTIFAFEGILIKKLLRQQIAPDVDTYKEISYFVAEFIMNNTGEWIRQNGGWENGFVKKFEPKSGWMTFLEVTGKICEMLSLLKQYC

MCL-1 = MCL-1 (Homo sapiens, UniProt Q07820); settings: selectivity profile; cited from earlier work
Chain of MCL-1 (Q07820 whole entry, species assumed): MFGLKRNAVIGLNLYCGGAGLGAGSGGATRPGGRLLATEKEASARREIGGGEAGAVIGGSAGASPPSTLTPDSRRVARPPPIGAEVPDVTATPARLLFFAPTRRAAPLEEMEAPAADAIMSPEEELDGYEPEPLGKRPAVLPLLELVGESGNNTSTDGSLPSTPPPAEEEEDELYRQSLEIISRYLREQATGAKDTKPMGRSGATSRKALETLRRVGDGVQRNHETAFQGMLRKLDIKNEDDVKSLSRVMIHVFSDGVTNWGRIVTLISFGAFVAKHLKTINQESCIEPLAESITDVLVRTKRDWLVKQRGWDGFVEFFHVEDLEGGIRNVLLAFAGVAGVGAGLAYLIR

BCL-XL = BCL-XL (Homo sapiens, UniProt Q07817); settings: selectivity profile; cited from earlier work
Chain of BCL-XL (Q07817 whole entry, species assumed): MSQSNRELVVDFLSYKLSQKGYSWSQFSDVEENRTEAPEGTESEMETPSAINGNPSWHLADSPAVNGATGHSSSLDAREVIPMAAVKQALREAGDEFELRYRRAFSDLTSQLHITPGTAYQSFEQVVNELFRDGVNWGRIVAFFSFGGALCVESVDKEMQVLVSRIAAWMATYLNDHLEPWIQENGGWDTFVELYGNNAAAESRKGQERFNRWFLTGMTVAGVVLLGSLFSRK

[2] = Human PBMC viability assay; assay type: cell-based; settings: CD11c+ dendritic cells in human PBMC cultures, 1.25 pM azacitidine alone, FIG. 2, read-out: reduction of the viability of CD11c^+ dendritic cells
Method: PBMCs were counted and plated in complete RPMI. Drug A alone or in combination azacitidine was added to the PBMCs. Following 72-hour or five day incubation at 37° C., cells were stained with a fixable viability dye followed by staining with cell surface markers: CD3, CD19, CD14, CD56, CD16, CD11c, and HLADR (Biolegend). Cells were processed for flow cytometry by Attune NxT and analyzed by FlowJo 10.3. Viability gating strategy included double singlet exclusion by FSC height and FSC width followed by cell type surface marker then viability gate. CD11c DCs were identified as lineage negative (CD3, CD19, CD14, CD16 and CD56) HLADR^+ CD11c^+. Percent viable cells were tabulated using GraphPad Prism 8.
Dendritic cells (DCs) are antigen-presenting cells (also known as accessory cells) of the mammalian immune system. They are believed to act as messengers between the innate and the adaptive immune systems.

MV4-11 tumor xenografts = test: Subcutaneous MV4-11 leukemia xenograft model; assay type: in vivo, mice; settings: day 26, Drug A 10 mg/kg and aza 5 mg/kg IP three times per week
Method: (§1) Tumors were monitored until average size of all tumors reached 105 mm^3 for HL60, 75 mm^3 for MV4-11 and 112 mm^3 for OCI-AML3. […] Mice in HL60 and OCI-AML3 tumor models were dosed intraperitoneally (IP) five times, three days apart at 5 mg/kg for azacitidine, and six times, three days apart at 10 mg/kg for Drug A. MV4-11 tumor bearing mice were dosed IP three times per week at 5 mg/kg for azacitidine and 10 mg/kg for Drug A. Tumors were measured in two dimensions with calipers and tumor volume was calculated as: length×width×width×0.5, where length was the larger of the two measurements. Animals were sacrificed when tumor reached a volume of ˜2000 mm^3.
(§2) In this Example, the anti-tumor activity of Drug A in combination with azacitidine (aza) was assessed mice bearing either HL60, OCI-AML3 and MV4-11 human leukemia tumor xenografts. (See Example 1 for experimental details.) HL60 is a TP53null FLT3 wt cell line; OCI-AML3 is TP53 wt and FLT3 wt; and MV4-11 is TP53 wt and FLT3-ITD.
Mice bearing MV4-11 xenografts were randomized into 4 groups of 9-10 each. One group of mice was given Drug A at 10 mg/kg IP (3 times per week), the second group of mice was given aza at 5 mg/kg IP (three times per week), the third group was given both Drug A and aza (at the doses and administration schedule for each single agent, and the fourth group was given vehicle. […]

[3] = tested on: HL60-LUC2 acute myeloid leukemic model; test: Disseminated HL60-LUC2 systemic leukemic model, Drug A and azacitidine; assay type: in vivo, mice
Method: After transplantation of HL60-LUC2 cells by intravenous tail injection into immunodeficient NSG mice (7.5E6 cells/animal), engraftment was confirmed by bioluminescence imaging and mice were randomized into 4 groups (10 mice/group). Treatment was performed as shown Table A below.
Treatment was continued until mice received 14 doses of single agent Drug A, single agent azacitidine, or Drug A in combination with azacitidine.

[4] = tested on: CD47 on primary AML blasts; test: CD47 cell-surface expression, primary AML blasts; assay type: cell-based; settings: two human patients; FIG. 3C
Method: (§3) In another set of assays, the effect of azacitidine or venetoclax on the expression levels of CD47 on the cell surfaces of MV4-11 and primary AML cells from two different human patients was tested.

[5] = tested on: calreticulin on the surface of MV4-11 cells; test: Analysis of calreticulin cell-surface expression, MV4-11; assay type: cell-based, human; settings: for expression of the pro-phagocytic signal calreticulin in the MV411 AML cell line: FIG. 3B
Method: (§4) To detect changes in calreticulin expression levels in human acute myeloid leukemia cell lines HL60, OCI-AML3 and MV4-11, cells were incubated with either 2.5 pM or 75 nM of azacitidine (Selleckchem) in complete growth medium (RPMI1640, 10% FBS) in a 37° C. 5% CO2 incubator for 72 hrs. Cells grown in complete growth medium was used as a control for calreticulin baseline expression. After incubation, cells were harvested and washed once in staining buffer (PBS, 2% FBS), stained in PBS with fixable live/dead stain (Invitrogen) for 1 hour at 4° C., washed once in staining buffer and incubated with 500 ng/mL of calreticulin-AF647 (clone 1G6A7, Novus). After a 1 hour incubation at 4° C., cells were washed twice in staining buffer and fixed in 0.5% paraformaldehyde. Cells were analyzed on an Attune (ThermoScientific), and subsequent data analysis using Flowjo 10.6.
(§5) HL60 is a TP53null FLT3 wt cell line; OCI-AML3 is TP53 wt and FLT3 wt; and MV4-11 is TP53 wt and FLT3-ITD.
(§6) The effect of azacitidine or venetoclax on the expression levels of calreticulin on the cell surfaces of MV4-11 and primary AML cells from two different human patients was also tested.

[6] = tested on: OCI-AML3 tumor xenografts; test: Subcutaneous OCI-AML3 leukemia xenograft model; assay type: in vivo, mice; settings: day 20, Drug A 10 mg/kg IP Q3D 6 doses, aza 5 mg/kg IP Q3D 5 doses
Method: as §1, §2
(§7) Mice bearing HL60 xenografted tumors were randomized to 4 groups of 4-5 mice each. One group of mice was given (a) Drug A at 10 mg/kg IP (Q3D, 6 doses total), (b) aza at 5 mg/kg IP (Q3D, 5 doses total), (c) both Drug A and aza (at the doses and administration schedule for each single agent), or (d) vehicle. Mice bearing OCI-AML3 xenografts were similarly randomized and treated. […]

[7] = tested on: CD47 on the cell surfaces of MV4-11; test: CD47 cell-surface expression, MV4-11; assay type: cell-based, human; settings: FIG. 3C
Method: as §3

HL60 cells = test: In vitro phagocytosis assay, HL60 cells by human monocyte-derived macrophages; assay type: cell-based; settings: single agent, compared to untreated cells; FIG. 1A
Method: CD14^+ monocytes were purified by negative selection using the Classical Monocytes Isolation Kit, human (Miltenyi Biotec) and LS columns (Miltenyi Biotec) according to the manufacturer's protocol. CD14^+ monocytes were seeded into 150 mm tissue culture dishes (Corning) at 6 million cells per dish in 25 mL medium comprised of RPMI complete media, supplemented with 50 ng/mL M-CSF (Miltenyi Biotec), 10% FBS (Thermo Fisher Scientific), 1% penicillin/streptomycin, and 1% GlutaMAX. Cells were cultured for seven to eleven days.
Target cells, HL60 and OCI-AML3 cells, were washed once in PBS and labeled with the Celltrace CFSE Cell Proliferation kit (Thermo Fisher Scientific) in suspension with 300 nM CFSE (carboxyfluorescein succinimidyl ester) according to the manufacturer's instructions and resuspended in RPMI complete media. Target cells were incubated overnight with two-fold serial dilutions of azacitidine between 39 nM to 2.5 μM in RPMI complete media. Prior to incubation with macrophages, cells were resuspended in RPMI. Macrophages were detached from culture plates by washing once with PBS and incubation in TrypLE Select for 20 minutes at 37° C. […]
Briefly HL60 cells and OCI-AML3 cells (i.e., “target cells”) were labeled with CFSE (carboxyfluorescein succinimidyl ester) and treated with azacitidine (aza) for 48 hours. […] Macrophage cells were pelleted, stained, and analyzed via flow cytometry. […]

[8] = tested on: calreticulin on the surface of OCI-AML3 cells; test: Analysis of calreticulin cell-surface expression, OCI-AML3; assay type: cell-based, human; settings: with increased concentrations of azacitidine, 72 hrs; FIG. 3A
Method: as §4, §5

HL60 tumor xenografts = test: Subcutaneous HL60 leukemia xenograft model; assay type: in vivo, mice
Method: as §1, §2, §7

[9] = tested on: calreticulin on the surface of HL60 cells; test: Analysis of calreticulin cell-surface expression, HL60; assay type: cell-based, human; settings: with increased concentrations of azacitidine, 72 hrs; FIG. 3A
Method: as §4, §5

[10] = tested on: calreticulin on primary AML blasts; test: Analysis of calreticulin cell-surface expression, primary AML blasts; assay type: cell-based; settings: two human patients; FIG. 3B
Method: as §6

[11] = cited from earlier work
[12] = tested on: HL60-LUC2 acute myeloid leukemic model; test: Disseminated HL60-LUC2 systemic leukemic model, Drug A and venetoclax; settings: monotherapy; Drug A 30 mg/kg IP, venetoclax 100 mg/kg oral gavage, Q3D 5 doses; FIG. 8
Method: The HL60LUC2 (ATCC) cell line was injected through the tail vein of NOD-SCID female mice at a concentration of 7.5×10^6 cells per in RPMI 1640. Bioluminescence imaging (BLI) acquisition and analysis were performed using the IVIS Spectrum (Perkin Elmer) to monitor tumor growth. Firefly D-luciferin (Regis Technologies) was diluted to 15 mg/ml stock in phosphate-buffered saline and filtered before use. Groups of mice were placed in the specimen chamber and injected with 200 μl of D-luciferin intraperitoneally (IP). BLI whole-body signal was acquired at approximately 10 minutes post injection. BLI flux values were serially monitored twice a week with initial scans acquired three days post inoculation of mice. Living Image Software (Perkin Elmer) was used to quantify BLI average total flux values (photons/second, p/s) following the manual construction of regions of interest over the entire mouse body. […] Drug A-treated mice were dosed by IP injection at 30 mg/kg, five times total at three days apart. Animals were sacrificed when the total flux reached 1E11 or loss in body weight of greater than 20%.
Venetoclax and Drug A therapies were initiated 4 days post engraftment and dosed every 3 days for a total of 5 doses.

O=C(c1cc(-c2cc3c(cc2C(=O)N2Cc4ccccc4C[C@H]2CN2CCOCC2)OCO3)n2c1CCCC2)N(c1ccccc1)c1ccc(O)cc1 [Drug S55746, (S)—N-(4-hydroxyphenyl)-3-(6-(3-(morpholinomethyl)-1,2,3,4-tetrahydroisoquinoline-2-carbonyl)benzo[d][1,3]dioxol-5-yl)-N-phenyl-5,6,7,8-tetrahydroindolizine-1-carboxamide]
cytotoxic activity on BCL-XL-dependent cells, such as platelets [1]: no cytotoxic activity | binding to BFL-1 (BCL2A1/A1) (BFL-1 (BCL2A1/A1)): no significant binding | binding to MCL-1 (MCL-1): no significant binding | affinity for BCL-XL (BCL-XL): poor affinity

Nc1ncn([C@@H]2O[C@H](CO)[C@@H](O)[C@H]2O)c(=O)n1 [azacitidine, 4-amino-1-[(2R,3R,4S,5R)-3,4-dihydroxy-5-(hydroxymethyl)oxolan-2-yl]-1,3,5-triazin-2-one]
cytotoxicity at 1.25 pM [2]: ~40% | % tumor growth inhibition (TGI) (MV4-11 tumor xenografts): 49% | tumor growth ([3]; 14 doses, Drug A 30 mg/kg, azacitidine 5 mg/kg, FIG. 5C): moderate tumor growth inhibition | Day by which all mice succumbed ([3]; second set of experiments, single agent, Q3D 14 doses, FIG. 5D): ~85 days | expression of the anti-phagocytic signal CD47 in primary AML blasts [4]: increase | expression of the pro-phagocytic signal calreticulin in the MV411 AML cell line [5]: increase | expression of calreticulin on the surface of MV4-11 cells ([5]; with increased concentrations of azacitidine, 72 hrs, FIG. 3A): increased | % tumor growth inhibition (TGI) [6]: 33% | expression of the anti-phagocytic signal CD47 in the MV411 AML cell line [7]: increase | macrophage-mediated phagocytosis of HL60 cells (HL60 cells): stimulated macrophage-mediated phagocytosis of HL60 cells slightly | expression of calreticulin on the surface of OCI-AML3 cells [8]: increased | HL60 tumor growth (HL60 tumor xenografts; day 20, compared to vehicle control, FIG. 4A): minimally inhibited | % tumor growth inhibition (TGI) (HL60 tumor xenografts; day 20, HL60, Drug A 10 mg/kg IP Q3D 6 doses, aza 5 mg/kg IP Q3D 5 doses): 42% | expression of calreticulin on the surface of HL60 cells [9]: increased | expression of the pro-phagocytic signal calreticulin in primary AML blasts [10]: increase

CC1(C)CCC(CN2CCN(c3ccc(C(=O)NS(=O)(=O)c4ccc(NCC5CCOCC5)c([N+](=O)[O-])c4)c(Oc4cnc5[nH]ccc5c4)c3)CC2)=C(c2ccc(Cl)cc2)C1 [venetoclax, 4-(4-{[2-(4-chlorophenyl)-4,4dimethylcyclohex-1-en-1-yl]methyl}piperazin-1-yl)-N-({3-nitro-4-[(tetrahydro-2H-pyran-4ylmethyl)amino]phenyl}sulfonyl)-2-(1H-pyrrolo[2,3-b]pyridin-5-yloxy)benzamide]
expression of the anti-phagocytic signal CD47 in primary AML blasts [4]: increase | expression of the pro-phagocytic signal calreticulin in the MV411 AML cell line [5]: increase | expression of the anti-phagocytic signal CD47 in the MV411 AML cell line [7]: increase | aqueous solubility [11]: very low | tumor growth [12]: moderate tumor growth inhibition | expression of the pro-phagocytic signal calreticulin in primary AML blasts [10]: increase
